The record followed here is patent US7507792B2, “MDA-7 proteins and methods of use thereof” (The Trustees of Columbia University In The City of New York, priority 1993, dated 2009).

The subject of experiment [1] is H0-1 human melanoma cell line. Kind of experiment: 96-h growth suppression (cell number by Coulter Counter). In kind it is cell-based. To be noted: for Growth Suppression (reversible): H0-1 cells, degree of initial 96 hr growth suppression versus untreated control. As to the method: FIG. 1A-B Effect of continuous exposure to various growth and differentiation modulating agents on the 96-h growth of the human melanoma cell line, H0-1. Cells were seeded at 5×10^4/35-mm tissue culture plate and 24 h later the medium was changed with the indicated compounds. Cell numbers were determined by Coulter Counter after 96-h growth. Further details can be found in Materials and Methods.
The H0-1 cell line is a melanotic melanoma derived from a person and was used between passage 100 and 125 (6,8,13). H0-1 cells were kindly provided by Dr. Beppino C. Giovanella, Stehlin Foundation for Cancer Research, Houston, Tex. Cultures were grown at 37° C. in a 95% air 5% CO2-humidified incubator in Dulbecco's modified Eagle's medium (DMEM) supplemented with 10% fetal bovine serum (DMEM-10) (Hyclone, Logan, Utah). H0-1 cells were maintained in the logarithmic stage of growth by subculturing (1:5 or 1:10) prior to confluency approximately every 4 to 5 days. […] Total cell numbers were determined after days 4, 7, 14, and 21, using a ZM Coulter Counter, and viable cell numbers were determined by trypan blue dye exclusion (6). […] Increases in cell number (two or more population doublings) after removal of the inducing agent(s) was considered reversible growth suppression. […] Conditioned medium was collected from treated cultures, contaminating cells were removed by centrifugation at 1000 rpm/10 min., and conditioned medium was stored at 4° C. until assayed for gene modulatory activity. Control conditioned medium was obtained as experimental conditioned medium from cells receiving only a medium change 24 hours after plating in the absence of test compound(s) and growth for 72 hours in DMEM-10.

For another experiment, the system named is mda-6. Kind of experiment: mda-6 expression (Northern blotting). In kind it is cell-based, human. Here is the method:
(§1) The mass excision of the library was performed using ExAssist helper phage as described above. The SOLR strain of Escherichia coli and cDNA phagemids were mixed at 37° C. for 15 min and plated onto LB plates containing ampicillin and IPTG/X-gal. White colonies were chosen at random, isolated and grown in LB medium. Plasmid minireps and restriction enzyme digestions were performed to confirm the presence of inserts. The inserts were isolated and used as robes for Northern blotting analysis (5,25). […] Radiolabeled probes were generated by random oligonucleotide priming (25). Prehybridization, hybridization, posthybridization washes, and autoradiography were performed as described (5,18,25).
Total cytoplasmic RNA was isolated and Northern blotting hybridization was performed as described (Reddy et al., 1991; Su et al., 1991; Jiang et al., 1992). Ten μg of RNA was denatured with glyoxal/DMSO, electrophoresed on 1.0% agarose gels, transferred to nylon membranes and hybridized to a ^32P-labeled p53 probe (Baker et al., 1990). The nylon membrane was stripped and hybridized to a ^32P-labeled mda-6 probe (Jiang and Fisher, 1993) and then after a second stripping the membrane was hybridized to a ^32P-labeled rat GAPDH probe (Fort et al., 1985), as described previously (Reddy et al., 1991; Su et al., 1991; Jiang et al., 1992). Following hybridization, the filters were washed and exposed for autoradiography (Reddy et al., 1991; Su et al., 1991; Jiang et al., 1992). mda-6 and GAPDH gene expression were also determined by reverse transcription-polymerase chain reaction (RT-PCR) as described (Adollahi et al., 1991; Lin et al., 1994; Jiang et al., 1994b). Total cytoplasmic RNA was treated with 0.5 units DNase (Boehringer-Mannheim Biochemicals)/μg RNA in 15% glycerol, 10 mM Tris, pH 7.5, 2.5 mM MgCl2, 0.1 mM EDTA, 80 mM KCl, 1 mM CaCl2 and 1 unit/ml RNasin (Promega) at 30° C. for 10 min. RNA was extracted with phenol-chloroform, precipitated with sodium acetate/ethanol and RNA pellets were resuspended in diethylpyrocarbonate-treated H2O. One μg of total RNA was reverse transcribed with 200 units of murine leukemia virus reverse transcriptase (Bethesda Research Laboratories) in 20 μl containing 1 mM deoxyribonucleotide triphosphates, 4 mM MgCl2, 10 mM Tris, pH 8.3, 50 mM KCl, 0.001% gelatin and 0.2 μg oligo-dT primer. Samples were adjusted to 100 μl with buffer containing 0.2 mM deoxyribonucleotide triphosphates, 2 mM MgCl2, 10 mM Tris, pH 8.3, 50 mM KCl and 0.001% gelatin. Fifty pmol of each primer, 1.5 units Taq DNA polymerase (Perkin-Elmer Cetus) were added and samples were covered with mineral oil, heated at 95° C. for 5 min and subjected to 25 cycles of PCR in a Perkin-Elmer Thermal Cycler using 1 min denaturation at 94° C., 2 min annealing at 55° C. and 3 min polymerization at 72° C. After extraction with chloroform, 20 μl of products were electrophoresed, blotted onto nylon filters and hybridized with an mda-6 or GAPDH specific probe. The mda-6 primers were 5′ to 3′ […] (SEQ ID NO:26) and […] (SEQ ID NO:27)(corresponding to nt 1527 to 1546) (GenBank accession number U09579); and the GAPDH primers were 5′ to 3′ […] (SEQ ID NO:28)and […] (SEQ ID NO:29)(corresponding to nt 1070 to 1053) (Tokunaga et al., 1987).

The subject of the next experiment is mda-7. The experiment in a line: mda-7 expression (Northern blotting, RT-PCR). It is filed as cell-based, human. The note with it: for mda-7 expression: H0-1. As to the method: as §1
Setting [2] is: H0-1, 96 hours, doses of FIG. 15 legend.
Where [3] appears, read: 96 hours, doses of FIG. 15 legend.
Where [4] appears, read: terminally differentiated HL-60 cells, TPA for 2 days, RA for 4 days.

Entries after “also recorded” stand apart in the source; their conditions may differ.

Turning to `C=C(C)[C@@]12O[C@@]3(c4ccccc4)O[C@@H]1[C@@H]1[C@@H]4O[C@]4(CO)[C@@H](O)[C@]4(O)C(=O)C(C)=C[C@H]4[C@@]1(O3)[C@H](C)[C@H]2OC(=O)/C=C/C=C/c1ccccc1` [MEZ, mezerein], the “Growth Suppression (reversible)” value in experiment [1] (Table 1) and in experiment [1] (Table 2) was 1+ (1+ = ~30% reduction in growth in comparison with untreated control cultures) in each case. Besides, the mda-6 expression entry with mda-6 (H0-1, 24 hours, doses of FIG. 19, phenyl butyrate 24 hours, 4 or 7 days) was “increased expression; also recorded: smaller induction of mda-6 expression”; in the experiment with mda-6 (setting [2]), “no significant or reduced alteration in expression”. Besides, the mda-7 expression result was “increased mda-7 expression” in the experiment on mda-7 (24 hours, doses of FIG. 19, phenyl butyrate 24 hours, 4 days or 7 days) and “Increased expression” in the experiment with mda-7 (setting [3]).
As to `CC1=C(/C=C/C(C)=C/C=C/C(C)=C/C(=O)O)C(C)(C)CCC1` [RA, trans-retinoic acid], the “inhibition of H0-1 growth” value in experiment [1] (H0-1, 96 hours, FIG. 1 concentrations) was “no inhibition of growth”. Also, the “Growth Suppression (reversible)” value in experiment [1] (Table 1) and in experiment [1] (Table 2) was “− (− = no significant change in growth (<10% reduction in growth in comparison with untreated control cultures))” throughout. The mda-6 expression result in the experiment on mda-6 (setting [2]) was “no significant or reduced alteration in expression”. For the same compound, in the experiment on mda-7 (setting [3]), the mda-7 expression entry is “does not induce growth changes or induce mda-7 expression”. Also, the “mda-7 expression (RT-PCR)” value with mda-7 (LAN human neuroblastoma cells, 5 days) was “not induced”; in the experiment on mda-7 (setting [4]) it was “persists”.
With `CCCCCCCCCCCCCC(=O)O[C@@H]1[C@@H](C)[C@@]2(O)[C@@H](C=C(CO)C[C@]3(O)C(=O)C(C)=C[C@@H]23)[C@@H]2C(C)(C)[C@]12OC(C)=O` [TPA, 12-O-tetradecanoyl-phorbol-13-acetate], the mda-6 expression result in the experiment with mda-6 (human histiocytic lymphoma, U-937, cells, differentiation and growth arrest) is reported as “induced”. Also, the “mda-7 expression (RT-PCR)” value was “induced” in the experiment on mda-7 (HL-60 and U-937 cells); “persists” in the experiment with mda-7 (setting [4]).
